From US11660270B2, “Nanoparticle compositions” (Indiana University Research and Technology Corporation, priority 2017, dated 2023)

What was measured:
[1] = Solvent screening for dissolving drugs and polymers; format: physicochemical; conditions: added to 1 ml of test solvent, vortex; smallest amount of solvent for immediate solubilization
Procedure: The following solvents were compared for use as drug solvents in nanoprecipitation: acetone, ethanol, tetrahydrofuran (THF), acetic acid, acetonitrile, dimethylsulfoxide (DMSO), dimethylformamide (DMF), N-methylpyrrolidone (NMP), methanol, n-propanol and isopropanol.
Chloroform, dichloromethane (DCM), ethanol, acetone, methanol and ethyl acetate were tested as polymer solvents.
Drugs (thyrotropin-releasing hormone (TRH), oxytocin, and luteinizing hormone-releasing hormone (LHRH)) and polymers (polysebacic acid, and PLGA (poly(lactide-co-glycolide)) with either a 1:1 or 3:1 molar ratio of lactide to glycolide) were added to 1 ml of test solvent and stirred vigorously by vortex.

[2] = in vivo; cited from earlier work

Row | Compound | best solvent for dissolving [1] | plasma half-life [2]
1 | luteinizing hormone-releasing hormone [LHRH] | acetic acid | 
2 | CC[C@H](C)[C@@H]1NC(=O)[C@H](Cc2ccc(O)cc2)NC(=O)[C@@H](N)CSSC[C@@H](C(=O)N2CCC[C@H]2C(=O)N[C@@H](CC(C)C)C(=O)NCC(N)=O)NC(=O)[C@H](CC(N)=O)NC(=O)[C@H](CCC(N)=O)NC1=O [oxytocin] | acetic acid | 
3 | NC(=O)[C@@H]1CCCN1C(=O)[C@H](Cc1cnc[nH]1)NC(=O)[C@@H]1CCC(=O)N1 [TRH, pyroglutamyl-histidyl-proline-amide] | Ethanol | about 8 minutes
